Data taken from patent publication US20030166531A1, “Methods for modulating an immune response by modulating the interaction between CTLA4 and PP2A” (Genetics Institute, Inc., priority 2001, published 2003).
Blank lines part the entries; values can stand above or below the molecule they belong to.

Key:
[1] = target: mutant K-less CTLA4 (K152A/K155A/K156A) expressed in doxycycline-induced Jurkat T cells (UniProt P16410); experiment: cell-based or functional assay
[2] = accumulates in filter feeding organisms such as shellfish; cited from earlier work
IL-2 gene transcription = experiment: Luciferase reporter assay under IL-2 promoter/enhancer in CTLA4-transfected Jurkat T cells stimulated with SEE and APCs; assay type: cell-based; settings: doxycycline-induced Jurkat cells, TCR-CTLA4 co-ligation with SEE and APCs, at maximal RLU response
Experimental: FIGS. 2A-2B depict the inhibition of IL-2 promoter/enhancer controlled luciferase reporter gene transcription by wild type (FIG. 2A) or K-less (FIG. 2B) CTLA4 molecules. Wild type or K-less CTLA4-transfected T cells were stimulated for 4 hours with antigen presenting cells and increasing concentrations of SEE antigen in the absence (upper data points) or presence (lower data points) of doxycycline (5 μg/ml). Cells were lysed and a luciferase assay was performed.
The panel of Jurkat T cells transfected with a regulatable, doxycycline sensitive CTLA4 cDNA has been previously described (Carreno, B. M. et al. (2000) J. Immunol. 165:1352-1356; Baroja, M. L. et al. (2000) J. Immunol. 164:49-55). A luciferase reporter cDNA under the control of the interleukin-2 promoter and enhancer elements was transfected in these cells, and clones isolated after limiting dilution were used for these experiments. A 0.45 lymphoblastoid B cell line that expresses HLA-DR1 and B7.1 was also used. Both cell lines were cultured under standard conditions.
Doxycycline treated Jurkat T cells (0.25×10^6 cells/group) were stimulated for 4 hours with 0.45 lymphoblastoid B cells (ratio 2:1) preincubated overnight with different concentrations of SEE. Luciferase assays were performed using the Promega Luciferase Assay System (Promega, Madison, Wis.). […]

Chain of UniProt P16410 (P16410 36-223, stated change not applied): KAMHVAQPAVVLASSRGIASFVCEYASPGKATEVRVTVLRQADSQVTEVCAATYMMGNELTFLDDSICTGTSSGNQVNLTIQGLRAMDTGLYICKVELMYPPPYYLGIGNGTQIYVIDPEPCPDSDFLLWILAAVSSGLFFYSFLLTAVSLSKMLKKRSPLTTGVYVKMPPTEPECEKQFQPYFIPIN

- inhibition of luciferase activity (IL-2 promoter/enhancer reporter) upon TCR-CTLA4 co-ligation [1]: 70 to 80%
Molecule: endogenous PP2AA (65 kD regulatory subunit of PP2A) of Jurkat T cells (from UniProt P30153 2-589)

Molecule: C=C1[C@@H](O)[C@@H]2O[C@]3(CC[C@H](/C=C/[C@@H](C)[C@@H]4CC(C)=C[C@@]5(O[C@H](C[C@@](C)(O)C(=O)O)CC[C@H]5O)O4)O3)CC[C@H]2O[C@@H]1[C@@H](O)C[C@H](C)[C@H]1O[C@@]2(CCCCO2)CC[C@H]1C [okadaic acid]
- toxicity when consumed by humans [2]: causes diarrhetic shellfish poisoning

Molecule: wild type CTLA4: wild type CTLA4 expressed from a doxycycline-regulatable cDNA in transfected Jurkat T cells
- inhibition of luciferase activity (IL-2 promoter/enhancer reporter) (IL-2 gene transcription): 35-55%
